Measurements published in ChEMBL document CHEMBL5154875, “Discovery of Potent Orally Bioavailable WD Repeat Domain 5 (WDR5) Inhibitors Using a Pharmacophore-Based Optimization” (J Med Chem, 2022).
Converted amounts (≈) assume the structure as drawn.

Experiments:
K562 = assay: Anti-proliferative activity against human K562 cells assessed as inhibition of cell proliferation incubated for 5 days by Cell Titre Glo luminescent assay; assay type: functional; conditions: Homo sapiens, K562, 120 h, time 5 day
[1] = molecular target: WD repeat-containing protein 5 (Homo sapiens, UniProt P61964); assay: Competitive binding affinity to N-terminal 6xHis-SUMO-tagged human WDR5 (22 to 334 residues) expressed in Escherichia coli BL21-Gold (DE3) cells assessed as inhibition constant using 10-mer-Thr-FAM peptide as substrate incubated for 1 hr by Lantha Screen based TR-FRET assay
MV4-11 = assay: Anti-proliferative activity against human MV4-11 cells assessed as inhibition of cell proliferation incubated for 5 days by Cell Titre Glo luminescent assay; assay type: functional; conditions: Homo sapiens, MV4-11, 120 h, time 5 day
MOLM-13 = assay: Anti-proliferative activity against human MOLM-13 cells assessed as inhibition of cell proliferation incubated for 5 days by Cell Titre Glo luminescent assay; assay type: functional; conditions: Homo sapiens, MOLM-13, 120 h, time 5 day
[2] = Oral bioavailability in CD-1 mouse at 10 mg/kg measured 0.083 to 24 hrs post-treatment by LC-MS/MS analysis; assay type: ADME, organism-based; conditions: in vivo, time 0.083-24 hrs; for bioavailability: CD-1, mouse
[3] = AUC (0 to infinity) in CD-1 mouse at 10 mg/kg, po measured 0.083 to 24 hrs post-treatment by LC-MS/MS analysis; assay type: ADME, organism-based; parameters: dose 10 mg/kg, time upper 24 hrs, time lower 0.083 hrs, route po; conditions: in vivo; for AUC(0-inf): CD-1, mouse
[4] = Cmax in CD-1 mouse at 10 mg/kg, po measured 0.083 to 24 hrs post-treatment by LC-MS/MS analysis; assay type: ADME, organism-based; parameters: time lower 0.083 hrs, dose 10 mg/kg, time upper 24 hrs, route po; conditions: in vivo
[5] = Volume of distribution at steady state in CD-1 mouse at 3 mg/kg, iv measured 0.083 to 24 hrs post-treatment by LC-MS/MS analysis; assay type: ADME, organism-based; conditions: in vivo, time 0.083-24 hrs; for Vd: CD-1, mouse, read-out: Vdss
[6] = Half life in CD-1 mouse at 10 mg/kg, po measured 0.083 to 24 hrs post-treatment by LC-MS/MS analysis; assay type: ADME, organism-based; conditions: in vivo, time 0.083-24 hrs; for t1/2: mouse, po, 10 mg/kg; for half-life: CD-1, mouse
[7] = AUC (0 to infinity) in CD-1 mouse at 3 mg/kg, iv measured 0.083 to 24 hrs post-treatment by LC-MS/MS analysis; assay type: ADME, organism-based; parameters: time upper 24 hrs, time lower 0.083 hrs, dose 3 mg/kg, route iv; conditions: in vivo; for AUC(0-inf): CD-1, mouse
[8] = Kinetic solubility of compound in PBS at pH 7.4 at 100 uM incubated for 1 hr by UV-visible spectroscopy analysis; assay type: physicochemical; conditions: for solubility kinetic at 1 h, 100 µM: PBS, pH 7.4, read-out: Kinetic_solubility
[9] = Clearance in CD-1 mouse at 3 mg/kg, iv measured 0.083 to 24 hrs post-treatment by LC-MS/MS analysis; assay type: ADME, organism-based; conditions: in vivo, time 0.083-24 hrs
[10] = Metabolic stability of compound in rat liver microsome assessed as half life at 1 uM measured upto 45 mins by LCMS analysis; assay type: ADME, microsomes; conditions: microsomes, 0.75 h, 1 µM
[11] = Metabolic stability of compound in rat liver microsome assessed as intrinsic clearance at 1 uM measured upto 45 mins by LCMS analysis; assay type: ADME, microsomes; conditions: microsomes, 0.75 h, 1 µM

| Compound | GI50 (K562) | Ki [1] | GI50 (MV4-11) | GI50 (MOLM-13) | further results |
| --- | --- | --- | --- | --- | --- |
| COc1cc(CN2CCc3c(cc(Cn4ccnc4C4CC4)cc3-c3cn(C)nc3C(F)(F)F)C2=O)cc(OC)c1 | 8500 nM | 0.028 nM | 240 nM | 710 nM | – |
| CCn1cc(-c2cc(Cn3ccnc3C)cc3c2CCN([C@H](C)c2cc(OC)ccn2)C3=O)c(C(F)(F)F)n1 | 7800 nM | 0.029 nM | 39 nM | 110 nM | – |
| Cc1cccnc1CN1CCc2c(cc(Cn3ccnc3C)cc2-c2cn(C)nc2C(F)(F)F)C1=O | 22000 nM | 0.59 nM | 3000 nM | 4700 nM | – |
| COc1cc(CN2CCc3c(cc(Cn4ccnc4C(F)F)cc3-c3cn(C)nc3C(F)(F)F)C2=O)cc(OC)c1 | > 30000 nM | > 6.7 nM | 12000 nM | 20000 nM | – |
| CCn1cc(-c2cc(Cn3ccnc3)cc3c2CCN([C@H](C)c2cc(OC)ccn2)C3=O)c(C(F)(F)F)n1 | 12000 nM | 0.028 nM | 39 nM | 100 nM | – |
| COc1cc(CN2CCc3c(cc(Cn4ccn(C)c4=N)cc3-c3c(C)nn(C)c3C)C2=O)cc(OC)c1 | > 30000 nM | 0.21 nM | 19000 nM | > 30000 nM | – |
| CCn1cc(-c2cc(Cn3ccnc3C)cc3c2CCN([C@H](c2cc(C)ccn2)C2CC2)C3=O)c(C(F)(F)F)n1 | 2500 nM | < 0.02 nM | 17 nM | 43 nM | F ([2]; mouse, po, 10 mg/kg): 15%; AUC ([3]; mouse): 1000 ng·h/mL; Cmax ([4]; mouse): 1083 ng/mL; Vdss ([5]; mouse, iv, 3 mg/kg): 1.1 L/kg; t1/2 [6]: 1.2 h; AUC ([7]; mouse): 2075 ng·h/mL; Kinetic_solubility ([8]; buffer, pH 7.4, 1 h, 100 µM): 66 µM |
| Cc1cc(CN2CCc3c(cc(Cn4ccnc4C)cc3-c3cn(C)nc3C(F)(F)F)C2=O)ccn1 | 13000 nM | 0.064 nM | 270 nM | 550 nM | – |
| COc1cc(CN2CCc3c(cc(Cn4ccnc4)cc3-c3cn(C)nc3C(F)(F)F)C2=O)cc(OC)c1 | 9100 nM | < 0.02 nM | 59 nM | 180 nM | – |
| CCn1cc(-c2cc(Cn3ccn(C)c3=N)cc3c2CCN(Cc2cc(OC)cc(OC)c2)C3=O)c(C(F)(F)F)n1 | > 30000 nM | < 0.02 nM | 36 nM | 110 nM | – |
| COc1cc(CN2CCc3c(cc(Cn4ccn(C)c4=N)cc3-c3cn(C)nc3C)C2=O)cc(OC)c1 | > 30000 nM | 0.023 nM | 210 nM | 570 nM | – |
| CCc1nccn1Cc1cc2c(c(-c3cn(C)nc3C(F)(F)F)c1)CCN(Cc1cc(OC)cc(OC)c1)C2=O | 7500 nM | – | 94 nM | 240 nM | – |
| Cc1cccc(CN2CCc3c(cc(Cn4ccnc4C)cc3-c3cn(C)nc3C(F)(F)F)C2=O)n1 | 13000 nM | 0.039 nM | 170 nM | 330 nM | – |
| CCc1ccnc(CN2CCc3c(cc(Cn4ccnc4C)cc3-c3cn(C)nc3C(F)(F)F)C2=O)c1 | 4100 nM | < 0.02 nM | 16 nM | 25 nM | – |
| COc1cc(CN2CCc3c(cc(Cn4ccn(C)c4=N)cc3-c3cc(C)ncc3C)C2=O)cc(OC)c1 | > 30000 nM | < 0.02 nM | 200 nM | 560 nM | – |
| COc1cc(CN2CCc3c(cc(Cn4ccn(C)c4=N)cc3-c3cccnc3C)C2=O)cc(OC)c1 | > 30000 nM | 0.036 nM | 1200 nM | 3900 nM | – |
| COc1cc(CN2CCc3c(cc(Cn4ccn(C)c4=N)cc3-c3ccc(F)cc3OC)C2=O)cc(OC)c1 | 18000 nM | 0.033 nM | 210 nM | 420 nM | – |
| CCc1ccnc(CN2CCc3c(cc(Cn4ccnc4C)cc3-c3cn(CC)nc3C(F)(F)F)C2=O)c1 | 5600 nM | < 0.02 nM | 24 nM | 43 nM | – |
| CCn1cc(-c2cc(Cn3ccnc3)cc3c2CCN([C@@H](c2cc(OC)ccn2)C2CC2)C3=O)c(C(F)(F)F)n1 | 3700 nM | – | 13 nM | 27 nM | bioavailability [2]: 61%; clearance [9]: 26 mL/min/kg; AUC(0-inf) [3]: 3980 ng·h/mL; Cmax ([4]; CD-1, mouse, read-out: Cmax): 2080 ng/mL; Vd [5]: 1.6 L/kg; half-life [6]: 1.3 h; AUC(0-inf) [7]: 1950 ng·h/mL; solubility kinetic at 1 h, 100 µM [8]: 60 µM (≈ 33 µg/mL) |

| Compound | GI50 (K562) | Ki [1] | GI50 (MV4-11) | GI50 (MOLM-13) | further results |
| --- | --- | --- | --- | --- | --- |
| COc1cc(CN2CCc3c(cc(Cn4ccn(C)c4=N)cc3-c3cc(C)nn3C)C2=O)cc(OC)c1 | > 30000 nM | 0.025 nM | 85 nM | 270 nM | – |
| CCn1cc(-c2cc(Cn3ccnc3C)cc3c2CCN(Cc2cc(OC)ccn2)C3=O)c(C(F)(F)F)n1 | 13000 nM | < 0.02 nM | 34 nM | 59 nM | – |
| COc1cc(CN2CCc3c(cc(Cn4ccnc4C(C)C)cc3-c3cn(C)nc3C(F)(F)F)C2=O)cc(OC)c1 | 6000 nM | 3.4 nM | 4700 nM | 7700 nM | – |
| CCn1cc(-c2cc(Cn3ccnc3)cc3c2CCN([C@H](c2cc(OC)ccn2)C2CC2)C3=O)c(C(F)(F)F)n1 | 1500 nM | < 0.02 nM | 19 nM | 37 nM | t1/2 [6]: 1.2 h |
| COc1cc(CN2CCc3c(cc(Cn4ccn(C)c4=N)cc3-c3ccc(F)cc3O)C2=O)cc(OC)c1 | > 30000 nM | 0.035 nM | 88 nM | 220 nM | – |
| COc1cc(CN2CCc3c(cc(Cn4ccn(C)c4=N)cc3-c3conc3C)C2=O)cc(OC)c1 | > 30000 nM | 0.046 nM | 850 nM | 2100 nM | – |
| COc1cc(CN2CCc3c(cc(Cn4ccnc4C)cc3-c3cn(C)nc3C(F)(F)F)C2=O)cc(OC)c1 | 3700 nM | < 0.02 nM | 32 nM | 110 nM | – |
| CCn1cc(-c2cc(Cn3ccnc3C)cc3c2CCN([C@@H](c2cc(OC)ccn2)C2CC2)C3=O)c(C(F)(F)F)n1 | 2600 nM | – | 15 nM | 36 nM | bioavailability [2]: 12%; clearance [9]: 41 mL/min/kg; AUC(0-inf) [3]: 508 ng·h/mL; Cmax ([4]; CD-1, mouse, read-out: Cmax): 652 ng/mL; Vd [5]: 1.6 L/kg; half-life [6]: 1.4 h; AUC(0-inf) [7]: 1240 ng·h/mL; solubility kinetic at 1 h, 100 µM [8]: 65 µM (≈ 36.7 µg/mL) |
| COc1ccnc(CN2CCc3c(cc(Cn4ccnc4C)cc3-c3cn(C)nc3C(F)(F)F)C2=O)c1 | 9500 nM | < 0.02 nM | 24 nM | 39 nM | t1/2 [10]: 3.2 min; CLH [11]: 220 µL/min/mg |
| COc1cc(CN2CCc3c(cc(Cn4ccn(C)c4=N)cc3-c3ccncc3C)C2=O)cc(OC)c1 | > 30000 nM | 0.029 nM | 230 nM | 640 nM | – |
| Cc1nccn1Cc1cc2c(c(-c3cn(C)nc3C(F)(F)F)c1)CCN(Cc1ccccn1)C2=O | > 30000 nM | 0.23 nM | 1500 nM | 3100 nM | – |
| COc1cc(CN2CCc3c(cc(Cn4ccn(C)c4=N)cc3-c3cn(C)nc3C(F)(F)F)C2=O)cc(OC)c1 | > 30000 nM | < 0.02 nM | 39 nM | 110 nM | – |
| COc1cc(CN2CCc3c(cc(Cn4ccn(C)c4=N)cc3-c3cc(C)cnc3C)C2=O)cc(OC)c1 | > 30000 nM | 0.022 nM | 640 nM | 2400 nM | – |
| COc1cc(CN2CCc3c(cc(Cn4ccn(C)c4=N)cc3-c3cccnc3OC)C2=O)cc(OC)c1 | > 30000 nM | 0.055 nM | 560 nM | 1600 nM | – |
| COc1cc(CN2CCc3c(cc(Cn4cnnc4)cc3-c3cn(C)nc3C(F)(F)F)C2=O)cc(OC)c1 | > 30000 nM | 6.5 nM | 16000 nM | > 30000 nM | – |
| COc1cc(CN2CCc3c(cc(Cn4cccc4)cc3-c3cn(C)nc3C(F)(F)F)C2=O)cc(OC)c1 | > 30000 nM | > 6.7 nM | 15000 nM | 15000 nM | – |
| Cc1ccnc(CN2CCc3c(cc(Cn4ccnc4C)cc3-c3cn(C)nc3C(F)(F)F)C2=O)c1 | 3600 nM | 0.02 nM | 23 nM | 33 nM | – |
| COc1cc(CN2CCc3c(cc(Cn4cccn4)cc3-c3cn(C)nc3C(F)(F)F)C2=O)cc(OC)c1 | > 30000 nM | > 6.7 nM | 22000 nM | 20000 nM | – |
